# Reference: the supplement of paper PMC10307832
# How the values were obtained:
# Assay in all cases: relative viability (nuclei count vs DMSO), 5 days (fraction); higher = more cells survive
# 201T = tested on: 201T
# Outline: (§1)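 Lung cancer cell lines were pin-tool dosed in 1536-well plates on the day after seeding, with either a lone drug or a fixed anchor-drug dose plus five library-drug doses (not always all listed) in √10 steps. Nuclei were counted on 4× images after 5 days. Relative viability is the ratio of treated-well to vehicle-well nuclei counts, with each value a median of duplicate plates.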
# ABC-1 = tested on: ABC-1
# Outline: as §1
# CAL-12T = tested on: CAL-12T
# Outline: as §1
# EMC-BAC-2 = tested on: EMC-BAC-2
# Outline: as §1
# H3255 = tested on: H3255
# Outline: as §1
# HOP-62 = tested on: HOP-62
# Outline: as §1
# LK-2 = tested on: LK-2
# Outline: as §1
# LXF-289 = tested on: LXF-289
# Outline: as §1
# NCI-H1563 = tested on: NCI-H1563
# Outline: as §1
# NCI-H1651 = tested on: NCI-H1651
# Outline: as §1
# NCI-H1734 = tested on: NCI-H1734
# Outline: as §1
# NCI-H1755 = tested on: NCI-H1755
# Outline: as §1
# NCI-H2009 = tested on: NCI-H2009
# Outline: as §1
# NCI-H2087 = tested on: NCI-H2087
# Outline: as §1
# NCI-H2126 = tested on: NCI-H2126
# Outline: as §1
# NCI-H2170 = tested on: NCI-H2170
# Outline: as §1
# NCI-H322M = tested on: NCI-H322M
# Outline: as §1
# NCI-H441 = tested on: NCI-H441
# Outline: as §1
# NCI-H522 = tested on: NCI-H522
# Outline: as §1
# NCI-H596 = tested on: NCI-H596
# Outline: as §1
# NCI-H647 = tested on: NCI-H647
# Outline: as §1
# SW 900 = tested on: SW 900
# Outline: as §1
compound,measurement,setting,value
COCC1(CO)C(=O)C2CCN1CC2 (stereo not drawn) [PRIMA-1MET] + N=C(N)NC(=N)NCCc1ccccc1 [Phenformin] (partner 250 µM),relative viability,201T; first compound 0.2 µM,0.444
same,relative viability,201T; first compound 0.6325 µM,0.452
same,relative viability,201T; first compound 2 µM,0.397
same,relative viability,201T; first compound 6.325 µM,0.452
same,relative viability,201T; first compound 20 µM,0.464
same,relative viability,ABC-1; first compound 0.2 µM,0.233
same,relative viability,ABC-1; first compound 0.6325 µM,0.2
same,relative viability,ABC-1; first compound 2 µM,0.23
same,relative viability,ABC-1; first compound 6.325 µM,0.231
same,relative viability,ABC-1; first compound 20 µM,0.199
same,relative viability,CAL-12T; first compound 0.2 µM,0.52
same,relative viability,CAL-12T; first compound 0.6325 µM,0.592
same,relative viability,CAL-12T; first compound 2 µM,0.586
same,relative viability,CAL-12T; first compound 6.325 µM,0.519
same,relative viability,CAL-12T; first compound 20 µM,0.0696
same,relative viability,EMC-BAC-2; first compound 0.2 µM,0.642
same,relative viability,EMC-BAC-2; first compound 0.6325 µM,0.564
same,relative viability,EMC-BAC-2; first compound 6.325 µM,0.609
same,relative viability,EMC-BAC-2; first compound 20 µM,0.352
same,relative viability,H3255; first compound 0.2 µM,0.458
same,relative viability,H3255; first compound 0.6325 µM,0.335
same,relative viability,H3255; first compound 2 µM,0.36
same,relative viability,H3255; first compound 6.325 µM,0.374
same,relative viability,H3255; first compound 20 µM,0.293
same,relative viability,HOP-62; first compound 0.2 µM,0.668
same,relative viability,HOP-62; first compound 0.6325 µM,0.686
same,relative viability,HOP-62; first compound 2 µM,0.648
same,relative viability,HOP-62; first compound 6.325 µM,0.694
same,relative viability,HOP-62; first compound 20 µM,0.311
same,relative viability,LK-2; first compound 0.2 µM,0.45
same,relative viability,LK-2; first compound 0.6325 µM,0.41
same,relative viability,LK-2; first compound 2 µM,0.228
same,relative viability,LK-2; first compound 6.325 µM,0.14
same,relative viability,LK-2; first compound 20 µM,0.124
same,relative viability,LXF-289; first compound 0.2 µM,0.491
same,relative viability,LXF-289; first compound 0.6325 µM,0.482
same,relative viability,LXF-289; first compound 2 µM,0.428
same,relative viability,LXF-289; first compound 6.325 µM,0.513
same,relative viability,LXF-289; first compound 20 µM,0.456
same,relative viability,NCI-H1563; first compound 0.2 µM,0.686
same,relative viability,NCI-H1563; first compound 0.6325 µM,0.673
same,relative viability,NCI-H1563; first compound 2 µM,0.668
same,relative viability,NCI-H1563; first compound 6.325 µM,0.719
same,relative viability,NCI-H1563; first compound 20 µM,0.302
same,relative viability,NCI-H1651; first compound 0.2 µM,0.297
same,relative viability,NCI-H1651; first compound 0.6325 µM,0.244
same,relative viability,NCI-H1651; first compound 2 µM,0.293
same,relative viability,NCI-H1651; first compound 6.325 µM,0.377
same,relative viability,NCI-H1651; first compound 20 µM,0.339
same,relative viability,NCI-H1734; first compound 0.2 µM,0.385
same,relative viability,NCI-H1734; first compound 0.6325 µM,0.328
same,relative viability,NCI-H1734; first compound 2 µM,0.324
same,relative viability,NCI-H1734; first compound 6.325 µM,0.361
same,relative viability,NCI-H1734; first compound 20 µM,0.058
same,relative viability,NCI-H1755; first compound 0.2 µM,0.613
same,relative viability,NCI-H1755; first compound 0.6325 µM,0.659
same,relative viability,NCI-H1755; first compound 2 µM,0.406
same,relative viability,NCI-H1755; first compound 6.325 µM,0.635
same,relative viability,NCI-H1755; first compound 20 µM,0.574
same,relative viability,NCI-H2009; first compound 0.2 µM,0.497
same,relative viability,NCI-H2009; first compound 0.6325 µM,0.456
same,relative viability,NCI-H2009; first compound 2 µM,0.519
same,relative viability,NCI-H2009; first compound 6.325 µM,0.53
same,relative viability,NCI-H2009; first compound 20 µM,0.217
same,relative viability,NCI-H2087; first compound 0.2 µM,0.315
same,relative viability,NCI-H2087; first compound 0.6325 µM,0.332
same,relative viability,NCI-H2087; first compound 2 µM,0.494
same,relative viability,NCI-H2087; first compound 6.325 µM,0.463
same,relative viability,NCI-H2087; first compound 20 µM,0.168
same,relative viability,NCI-H2126; first compound 0.2 µM,0.568
same,relative viability,NCI-H2126; first compound 0.6325 µM,0.532
same,relative viability,NCI-H2126; first compound 2 µM,0.513
same,relative viability,NCI-H2126; first compound 6.325 µM,0.577
same,relative viability,NCI-H2126; first compound 20 µM,0.531
same,relative viability,NCI-H2170; first compound 0.2 µM,0.418
same,relative viability,NCI-H2170; first compound 0.6325 µM,0.416
same,relative viability,NCI-H2170; first compound 2 µM,0.38
same,relative viability,NCI-H2170; first compound 6.325 µM,0.405
same,relative viability,NCI-H2170; first compound 20 µM,0.376
same,relative viability,NCI-H322M; first compound 0.2 µM,0.869
same,relative viability,NCI-H322M; first compound 0.6325 µM,0.549
same,relative viability,NCI-H322M; first compound 6.325 µM,0.804
same,relative viability,NCI-H322M; first compound 20 µM,0.0578
same,relative viability,NCI-H441; first compound 0.2 µM,0.872
same,relative viability,NCI-H441; first compound 0.6325 µM,0.762
same,relative viability,NCI-H441; first compound 2 µM,0.838
same,relative viability,NCI-H441; first compound 6.325 µM,0.657
same,relative viability,NCI-H441; first compound 20 µM,0.183
same,relative viability,NCI-H522; first compound 0.2 µM,0.626
same,relative viability,NCI-H522; first compound 0.6325 µM,0.459
same,relative viability,NCI-H522; first compound 2 µM,0.534
same,relative viability,NCI-H522; first compound 6.325 µM,0.619
same,relative viability,NCI-H522; first compound 20 µM,0.142
same,relative viability,NCI-H596; first compound 0.2 µM,0.752
same,relative viability,NCI-H596; first compound 0.6325 µM,0.794
same,relative viability,NCI-H596; first compound 2 µM,0.622
same,relative viability,NCI-H596; first compound 6.325 µM,0.891
same,relative viability,NCI-H596; first compound 20 µM,0.693
same,relative viability,NCI-H647; first compound 0.2 µM,0.405
same,relative viability,NCI-H647; first compound 0.6325 µM,0.546
same,relative viability,NCI-H647; first compound 2 µM,0.453
same,relative viability,NCI-H647; first compound 6.325 µM,0.514
same,relative viability,NCI-H647; first compound 20 µM,0.0596
same,relative viability,SW 900; first compound 0.2 µM,0.665
same,relative viability,SW 900; first compound 0.6325 µM,0.61
same,relative viability,SW 900; first compound 2 µM,0.492
same,relative viability,SW 900; first compound 6.325 µM,0.0861
same,relative viability,SW 900; first compound 20 µM,0.105
